Like-named read-outs stand apart in the source and are kept apart here.
Tests used:
ERα [1] = assay: Literature ERα reporter gene assays (comparison); type: cell-based; details: for EC10, approx.: in M (unit assumed)
Method: S5.4: Comparison with literature data for ERα reporter gene assays
To improve data comparability with our own results we converted reported EC₅₀ to EC₁₀ by dividing by 9, which is the ratio for log-logistic concentration-response curves with a hillslope of 1 (Figure S9a). Additionally, REPBPA values were calculated to enable a more consistent evaluation. Methodological differences between studies must be considered, as Reiniger et al.24 used the YES assay, while Goksøyr et al.25 applied ERα from fish (Figure S9b).
Cyan symbols highlight the ER-UAS-bla GripTite (this study and Tox21GenBLA).
(1 picture or pasted object on this page, not shown here)

ERα [2] = details: cited from earlier work
Tox21 assays [3] = details: cited from earlier work
[4] = 15 min
Tox21 assays [5] = assay: Re-evaluated Tox21 data (Adamovsky et al.), REPBPA and SRbaseline; details: for SRbaseline: Specificity Ratio;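 on all read-outs here: published Tox21 results reanalysed with a revised model predicting baseline toxicity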
From the text: We also reanalyzed the Tox21 data of Adamovsky et al. with the updated baseline toxicity prediction model (Table S2).

[6] = tested on: HEK293H, HEK293T, H4IIe, MCF7 and SH-SY5Y cells; details: for cytotoxicity,median REPBPA,IC10: median IC10 relative to BPA; for IC10,Median (M): median cytotoxicity of all cell lines; for IC10, median: median cytotoxicity over all cell lines
Method: Cell culture conditions and bioassay protocols including response detection are provided in Text S2.1–2.4 and Table S3. − Cell viability was determined from cell confluency using an IncuCyte S3 Live-Cell Analysis System (Sartorius AG, Essen, Germany) before and after exposure, except for SH-SY5Y cells (live–dead staining with Nuclear Green LcS1 and propidium iodide, Abcam, UK). For metabolic activation experiments, cell viability was assessed using the ToxBLAzer DualScreen Kit (Thermo Fisher Scientific) to capture the remaining toxicity in ERα-UAS-bla GripTite after treatment with the aCYP catalyst (details in Text S2.4).
For ARE, the concentration that triggered an induction ratio of 1.5 (ECIR1.5) was used as the benchmark value, as detailed in Text S2.5. IC10 values also served as a threshold for data analysis in all assays; only concentrations below IC10 were considered when deriving EC10 or ECIR1.5.
TR indicates whether the cytotoxicity is triggered by specific toxicity mechanisms (TR ≥ 10) or not (0.1< TR< 10). 3 TR=IC10,baseline/IC10 We measured the cytotoxicity of BPA and its alternatives in HEK293H (PPARγ), HEK293T (ERα), H4IIe (AhR CALUX), MCF7 (ARE/MMP), and differentiated SH-SY5Y cells (Table S6). […]
medium, supplemented with 2% B-27 Supplement and 2 mM GlutaMAX Supplement. SH - SY5Y cells were differentiated with 10 µM all-trans retinoic acid prior to the assay.
S2.2: Cell Seeding and Incubation. For all bioassays, cell suspensions in the respective assay medium were dispensed into each well of 384-well plates using a MultiFlo Dispenser (Biotek, (now Agilent), Winooski, VT, U.S.). After seeding, the plates were incubated at 37° C and 5% CO₂ for […]. The final cell densities and plate types were as follows: Black poly-D-lysine […]
6500 cells/well, ERα: 5000 cells/well. White 384-well plates with a clear bottom (Product No.
NYC, U.S.) for AhR: 3250 cells/well. Black Collagen I coated plates were used (Product No.
S2.3: Chemical Dosing and Assay Analysis Procedures. The dosing procedure and high-throughput assay workflow have been described in detail before. 9 The dosing concentrations […]
Stock solutions were then either added directly to the respective cell culture medium or evaporated under nitrogen, followed by replenishment with fresh medium. The final solvent content in each well was kept below 1% for methanol, 0% for acetonitrile.
Dosing plates were prepared as 11 -step serial dilutions using a Hamilton Microlab Star robotic system (Hamilton, Bonaduz, Switzerland), and chemicals were dosed in duplicates by transferring 10 μL twice from the dosing plates to the cell plates . After quantifying cell confluency as described in S2. 4., the exposed cells were incubated at 37° C and 5% CO₂ for an additional 24 h. All chemicals were tested in all assays with at least three independent […]
S2.4: Cell Viability Measurement s and bioanalytical protocols . The confluency as a measure of cell viability was determined with an IncuCyte S3 Live -Cell Analysis System (Sartorius AG, Essen, Germany). With this method the confluency of cells in a microscopy image are normalized to control wells without cells and compared before and after 24 hours of exposure.
This method has been described previously 13. Cell viability of SH-SY5Y cells was measured […]
propidium iodide (PI, Abcam, Cambridge, U.K.).14 Nuclear Green LCS1 is a membrane-permeable dye that stains the nuclei of all cells, whereas PI only enters cells with compromised membrane integrity (non-viable cells). After staining, live cells show green nuclei without red fluorescence, while dead cells display both green and red nuclear fluorescence due to PI […]
intercalation. Cell viability was calculated as the proportion of green-only nuclei relative to the […]
For experiments with the preceding aCYP activation, ERα cell viability was additionally calculated from the readout of the ToxBLAzer reagent. The ToxBLAzer assay was conducted following the manufacturer's instructions (Thermo Fisher, Waltham, MA, U.S.).13 Fluorescence

PPARγ = tested on: PPARγ; design: method as in Crosthwait et al. 2025; Sun et al. 2025; details: ref Crosthwait et al. 2025; Sun et al. 2025; cited from earlier work
[7] = experimental, cited from earlier work
neuronal stem cells = details: ref Liang et al.; cited from earlier work
[8] = Atlantic cod estrogen receptor, approximated from literature EC50, ref Goksøyr et al 2024
[9] = Atlantic cod estrogen receptor, ref Goksøyr et al 2024
[10] = approximated from literature EC50, ref Pelch et al 2019
[11] = approximated from literature EC50, ref Reiniger et Oehlmann 2024
[12] = approximated from literature values, ref Kojima et al 2019
[13] = relative estrogenic potency vs BPA, ref Kojima et al 2019
[14] = relative estrogenic potency vs BPA, ref Pelch et al 2019
[15] = relative estrogenic potency vs BPA, ref Reiniger et Oehlmann 2024
[16] = estrogen receptor from Atlantic cod (Gadus morhua), ref Goksøyr et al 2024
[17] = TOX21_AR_LUC_MDAKB2_Antagonist_0,5nM_R1881, re-evaluated Tox21 data, ref Adamovsky et al 2024
[18] = Tox21BLA, ref Adamovsky et al. 2024
[19] = Tox21Luc, ref Adamovsky et al. 2024
[20] = TOX21_AR_LUC_MDAKB2_Antagonist_0,5nM_R1881, Relative Effect Potency
[21] = TOX21_AR_LUC_MDAKB2_Antagonist_0,5nM_R1881
[22] = TOX21_PPARg_BLA_antagonist_ratio, re-evaluated Tox21 data, ref Adamovsky et al 2024
[23] = TOX21_PPARg_BLA_antagonist_ratio

Structure (SMILES)	EC10, approx. (ERα [1]; [8])	REPBPA (ERα [1]; [9])	EC10, approx. (ERα [1]; [10])	EC10, approx. (ERα [1]; [11])	EC10, approx. (ERα [1]; [12])	REPBPA (ERα [1]; [13])	REPBPA (ERα [1]; [14])	REPBPA (ERα [1]; [15])	EC50 (ERα [2]; [16])	EC50 (ERα [2]; ref Kojima et al 2019)	EC50 (ERα [2]; ref Pelch et al 2019)	Efficacy % (ERα [2]; ref Pelch et al 2019)	Efficacy % (ERα [2]; ref Reiniger et Oehlmann 2024)	EC10 (Tox21 assays [3]; [19])	REPBPA (Tox21 assays [5]; [20])	SRbaseline (Tox21 assays [5]; [21])	REPBPA (Tox21 assays [5]; [19])	cytotoxicity,median REPBPA,IC10 [6]	IC10,Median (M) [6]	IC10, median [6]	other results
CCC(C)(c1ccc(O)cc1)c1ccc(O)cc1 [BPB, 4,4'-(Butane-2,2-diyl)diphenol]	~1.78E-07	1.19E+00	~3.56E-08	~1.87E-07	~1.15E-08	3.17E+00	3.75E+00	1.35E+00	1600 nM	74 nM	320 nM	115.70%	9.23E+01%	2.15E-08	0.94	18.87	1.63E+00	1.93	3.62 × 10^–5 M	36200 nM	EC50 (ERα [2]; ref Reiniger et Oehlmann 2024): 1680 nM; EC10 (Tox21 assays [3]; ATG_NRF2_ARE_CIS_up, re-evaluated Tox21 data, ref Adamovsky et al 2024): 4.31e-07 M; EC10 (Tox21 assays [3]; [17]): 2.58e-06 M; EC10 (Tox21 assays [3]; TOX21_CAR_Agonist, re-evaluated Tox21 data, ref Adamovsky et al 2024): 1.15e-06 M; EC10 (Tox21 assays [3]; TOX21_CAR_Antagonist, re-evaluated Tox21 data, ref Adamovsky et al 2024): 6.91e-08 M; EC10 (Tox21 assays [3]; [18]): 1.63E-07; % Loss [4]: 12%; Cparent-Ratio Mean [4]: 0.88; Cparent-Ratio Rep.1 [4]: 0.80; Cparent-Ratio Rep.1 % [4]: 79.66%; Cparent-Ratio Rep.2 [4]: 0.96; Cparent-Ratio Rep.2 % [4]: 96.18%; REPBPA (Tox21 assays [5]; ATG_NRF2_ARE_CIS_up, Relative Effect Potency): 17.53; SRbaseline (Tox21 assays [5]; ATG_NRF2_ARE_CIS_up): 112.9; REPBPA (Tox21 assays [5]; TOX21_CAR_Agonist, Relative Effect Potency): 1.20; SRbaseline (Tox21 assays [5]; TOX21_CAR_Agonist): 42.52; REPBPA (Tox21 assays [5]; TOX21_CAR_Antagonist, Relative Effect Potency): 7.88; SRbaseline (Tox21 assays [5]; TOX21_CAR_Antagonist): 704.7; REPBPA (Tox21 assays [5]; [18]): 3.63E+00; PPARγ transactivation reported in the literature (PPARγ): No agonism was detected
Oc1ccc(Cc2ccc(O)cc2)cc1 [BPF, Bis(4-hydroxyphenyl)methane]	~4.22E-07	5.00E-01	~1.78E-07	~2.82E-07	~5.50E-08	6.64E-01	7.50E-01	8.90E-01	3800 nM	320 nM	1600 nM	63.10%	1.05E+02%	8.91E-08	–	–	4.84E-01	0.17	4.09 × 10^–4 M	409000 nM	EC50 (ERα [2]; ref Reiniger et Oehlmann 2024): 2540 nM; EC10 (Tox21 assays [3]; ATG_PPARg_TRANS_up, re-evaluated Tox21 data, ref Adamovsky et al 2024): 3.95e-06 M; EC10 (Tox21 assays [3]; [22]): 9.55e-06 M; reduction of C parent after aCYP oxidation [4]: 48%; REPBPA (Tox21 assays [5]; ATG_PPARg_TRANS_up, Relative Effect Potency): 0.40; SRbaseline (Tox21 assays [5]; ATG_PPARg_TRANS_up): 41.61; SRbaseline (Tox21 assays [5]; [23]): 17.20; predicted or literature experimental log Kow ([7]; ref Hansch, 1995): 2.91; concentration with significant reduction in average neurite length (neuronal stem cells): 1 nM
O=S(=O)(c1ccc(O)cc1)c1ccc(O)cc1 [BPS, 4,4'-Sulfonyldiphenol]	~9.26E-06	2.28E-02	~1.44E-07	~7.13E-09	~8.50E-07	4.29E-02	9.23E-01	3.52E+01	83300 nM	5400 nM	1300 nM	61.60%	7.90E+00%	–	0.0653	127.8	1.68E-02	–	5.61 × 10^–4 M	561000 nM	REPBPA,ERα reported in the literature (ERα [2]; ref Text S5.4, Tables S2 and S7): 0.02–1; % Loss [4]: -2%; SRbaseline (Tox21 assays [5]; ATG_PPARg_TRANS_up): 2973; REPBPA (Tox21 assays [5]; ATG_chAR_XSP2_up, Relative Effect Potency): 1.00; SRbaseline (Tox21 assays [5]; ATG_chAR_XSP2_up): 645.8; SRbaseline (Tox21 assays [5]; ATG_hPPARg_XSP2_up): 3669; REPBPA (Tox21 assays [5]; [18]): 1.59E-01; concentration with significant reduction in average neurite length (neuronal stem cells): 1 nM
Oc1ccc(Sc2ccc(O)cc2)cc1 [BPT, 4,4'-Thiodiphenol]	–	–	–	–	–	–	–	–	–	–	–	–	–	7.19E-08	1.69	66.82	8.32E-01	0.74	9.51 × 10^–5 M	95100 nM	EC10 (Tox21 assays [3]; [17]): 1.43e-06 M; EC10 (Tox21 assays [3]; [22]): 2.66e-06 M; SRbaseline (Tox21 assays [5]; [23]): 35.93; predicted or literature experimental log Kow ([7]; ref Hansch, 1995): 3.34
O=C(OCc1ccccc1)c1ccc(O)cc1 [BzPB, Benzyl 4-hydroxybenzoate]	–	–	–	–	–	–	–	–	–	–	–	19.70%	–	–	–	–	–	0.53	1.32 × 10^–4 M	132000 nM	predicted or literature experimental log Kow ([7]; ref Lehner 1993): 3.56
